# Test results reported in US8889729B2, “Compositions for treating amyloid associated diseases” (Tel Aviv University Future Technology Development L.P., priority 2004, dated 2014).
# Assays:
# [1] = biological target: T1, Aβ 1-42 (Homo sapiens, UniProt P05067); assay: Thioflavin T fluorescence assay of Aβ 1-42 fibrillization (Example 2); assay type: biochemical; conditions: for inhibition of β-amyloid polypeptide fibril formation: 50 μM compound, 5 μM Aβ 1-42, 24 hours at 37° C.; for concentration dependence of inhibition of fibril formation: Aβ1-42, fixed incubation time of 24 hours; for IC50: Aβ1-42 fibrillization, 24 hours, calculated by the curve equation, read-out: apparent IC50
# T1 construct: Aβ 1-40 and Aβ 1-42, >98% pure) were purchased from Bachem; purchased Bachem (Bubendorf, Switzerland); host or cells: chemical synthesis
# Protocol: (§1) Aβ solutions: Synthetic lyophilized β-amyloid polypeptides (Aβ 1-40 and Aβ 1-42, >98% pure) were purchased from Bachem (Bubendorf, Switzerland). A 100 μM Aβ stock solution was prepared by dissolving Aβ1-40 or Aβ1-42 in dimethylsulfoxide (DMSO) and sonicating the resulting solution during 1 minute to avoid pre-aggregation. Aβ solutions were prepared by immediate dilution with 10 mM phosphate-buffered saline (100 mM NaCl, 0.5 mM EDTA, pH 7.4) to a final concentration of 10 μM (containing 10% (v/v) DMSO).
# (§2) Indole derivatives stock solutions were prepared by dissolving an indole derivative in DMSO, so as to achieve a concentration of 20 mM and then diluting the solution with 10 mM PBS buffer (100 mM NaCl, 0.5 mM EDTA, pH 7.4) to a final concentration of 100 μM (containing 0.5% (v/v) DMSO).
# (§3) Thioflavin T fluorescence assay: Fibrillization of A[…] 1-42 polypeptide was monitored using a Thioflavin T (ThT) dye binding assay. A 10 μM Aβ solution (either Aβ1-40 or Aβ1-42) was prepared as described above and was immediately mixed with the indole derivative stock solutions (100 μM), so as to achieve a final concentration of 5 μM for Aβ and various concentrations of the indole derivative. For each measurement, ThT was added to a 0.1 ml sample, to give a final concentration of 0.3 μM ThT and 0.4 μM Aβ. The samples were incubated at 37° C. Fluorescence measurements, made after addition of the ThT solution to each sample at 37° C., were carried out using a Jobin Yvon FluoroMax-3 spectrometer (excitation 450 nm, 2.5 nm slit; emission 480 nm, 5 nm slit, integration time of 1 second). Background was subtracted from each sample. Each experiment was repeated in quadruplicate.
# Inhibition of amyloid formation: The level of amyloid formation was detected using the above described Thioflavin T (ThT) dye binding assay. Fluorescence (relative intensity, measured in units of percent) of the ThT bound Aβ 1-42 remaining following 24 hours at 37° C., in the absence, and in the presence of 50 μM indole or indole derivative, was measured. Each measurement was recorded immediately after the fluorescence intensity reached a maximum value. The results obtained with representative indole derivatives, each representing a mean of four independent measurements along with an associated error bar representing a standard error, are graphically presented in FIG. 4.
# Concentration Dependence of Indole Derivatives inhibition activity: To examine the inhibition efficiency of the indole derivatives, the concentration dependence of inhibition of fibril formation was studied. The fibrillization of Aβ1-42, with and without an indole derivative was measured using the ThT fluorescence assay described above at a fixed incubation time of 24 hours.
# [2] = biological target: T2, Aβ1-40 (Homo sapiens, UniProt P05067); assay: Kinetics of Aβ1-40 fibrillogenesis inhibition, ThT fluorescence assay; assay type: biochemical; conditions: for effect on nucleation phase (lag phase) compared with control / effect on slope of growth curve (polymerization phase): 5 μM, 25 μM and 50 μM tested
# T2 construct: Synthetic lyophilized β-amyloid polypeptides (Aβ 1-40 and Aβ 1-42, >98% pure); purchased Bachem (Bubendorf, Switzerland); host or cells: chemical synthesis
# Protocol: as §1, §2, §3
# Kinetics Studies of Aβ1-40 Fibrillogenesis Inhibition: Aβ1-40, which has a slower fibrillogenesis rate [see, Jarrett et al. (1993) Biochemistry 32, 4693-4697] was used in these studies, in order to obtain better temporal resolution, assuming that a slower rate would allow more significant inhibition and a better understanding of the effect. 3-Hydroxyindole (denoted as 3HI), 4-hydroxyindole (denoted as 4HI) and indole-3-carbinol (denoted herein as I3C) were each added at concentrations of 5 μM, 25 μM, and 50 μM to a solution containing 5 μM of Aβ1-40 (prepared as described above) and the kinetics of Aβ1-40 fibrillogenesis inhibition was measured using the ThT fluorescence assay.
# [3] = biological target: T2, Aβ1-40; assay: TEM ultrastructural analysis of Aβ1-40 samples from kinetic studies
# Protocol: Transmission Electron microscopy (TEM): A 10 μl sample of the ThT fluorescence assay was placed on a 400 mesh copper grid covered by carbon-stabilized Formvar film (SPI Supplies, West Chester, Pa.). After 1.5 minutes, excess fluid was removed and the grids were negatively stained for 2 minutes with 10 μl of 2% uranyl acetate solution. Excess fluid was removed and the samples were viewed using a JEOL 1200EX electron microscope operating at 80 kV. Ultrastructural Analysis of amyloid fibril formation: The effect of the indole derivatives on the ultrastructural properties of the assembled Aβ was first evaluated by TEM measurements. Thus, TEM analysis was performed with samples of Aβ1-40 obtained from the kinetic studies described above after incubation for 14 days.
# [4] = biological target: T2, Aβ1-40; assay: AFM structural analysis of Aβ1-40 samples from kinetic studies; conditions: 50 μM compound, once control samples reached the polymerization phase
# Protocol: Atomic force microscopy (AFM): For each experiment, a 60 μl sample of was taken for AFM measurement at three different time points correlating to the amyloidogenic kinetic curve, as detailed hereinafter. The sample was centrifuged for 1.5 minutes at 13,000 rpm and 40 μl of the supernatant was removed. The remaining 20 μl droplet of the solution was re-suspended and deposited onto freshly cleaved mica for 1.5 minutes. The substrate was washed with 160 μl of double-distilled H2O to reduce background and to eliminate salts and buffer contaminants. The mica samples were then dried at room temperature. At least four regions of the mica surface were examined to ensure that similar structures existed throughout the sample. AFM images were obtained using a Veeco NanoScope IV MultiMode AFM (Digital Instruments, Santa Barbara, USA) in tapping mode. Measurements were performed at a resonance frequency of about 321.4 kHz.
# Additional structural analyses were performed using AFM measurements, performed with Aβ1-40 samples taken from the kinetic studies once the control samples reached the different fibrillogenesis phase.
# [5] = tested on: PC12 cells; assay: Aβ1-40 cytotoxicity on PC12 cells, MTT assay; assay type: cell-based; conditions: for inhibitory effect on Aβ1-40 cytotoxicity: both assays (T=0 and after 7 days incubation); for elevation of viability rate of PC12 cells compared with control: 5 μM Aβ1-40, MTT after 24 hours
# Protocol: Cell culture: PC12 pheochromocytoma cell line, a cultured benign tumor of the sympathetic nervous system, was routinely grown in Dulbecco's Modified Eagle Medium (DMEM) supplemented with 8% (v/v) fetal calf serum, 8% (v/v) horse serum, 100 U/ml penicillin, 100 U/ml streptomycin, and 2 mM L-glutamine (Biological industries, Israel). The cells were maintained at 37° C. in a humidified atmosphere containing 5% CO2. Cell cytotoxicity assay: PC-12 cells (3×10^5 cells/ml) were cultured in 96-well microplates (100 μl/well) and were incubated overnight at 37° C. The wells were then washed once with serum free-DMEM, so as to exclude the effect of the serum. To each well 100 μl of 5 μM Aβ1-40 (prepared from a stock solution of 0.5 mM in 10 mM NaOH) and an indole derivative at various concentrations were added. Each determination was made in quadruplicate. Following incubation for 24 hours at 37° C., cell viability was evaluated using the MTT assay (as described in Hansen et al. (1989) J. Immunol. Methods 119, 203-210). The effect of the indole derivatives on the formation of cytotoxic amyloid assemblies was determined by measuring the toxicity of the formed Aβ on pheochromocytoma cell line cultures (PC12) in the presence and absence of the indole derivatives. […] Cell viability was determined after 24 hours using the MTT assay. Cells incubated with only 5 μM Aβ1-40 served as the control.
# [6] = biological target: T3, Aβ 1-40 polypeptide (Homo sapiens, UniProt P05067); assay: Thioflavin T fluorescence assay of Aβ 1-40 fibrillization (Example 1); assay type: biochemical; conditions: 10 μM compound
# T3 construct: Recombinant β-amyloid (Aβ 1-40, >98% pure) polypeptide; purchased rPeptide (Athens Ga., USA)
# Protocol: Fibrillization of Aβ 1-40 polypeptide was monitored using a Thioflavin T (ThT) dye binding assay. […] Fluorescence measurements, made after addition of the ThT solution to each sample at 37° C., were carried out using a Jobin Yvon FluoroMax-3 spectrometer (excitation 450 nm, 2.5 nm slit; emission 480 nm, 5 nm slit, integration time of 1 second). Background was subtracted from each sample. The level of amyloid formation was detected using the above described Thioflavin T (ThT) dye binding assay.
# [7] = biological target: T3, Aβ 1-40 polypeptide; assay: Transmission electron microscopy of ThT assay samples (Example 1); conditions: 10 μM compound, sample at about 192 hours
# Protocol: Transmission Electron Microscopy (TEM) Measurements: 10 μl samples from the ThT fluorescence assay were placed on 400-mesh copper grids (SPI supplies, West Chester Pa.) covered by carbon stabilized Formvar film. After 1 minute, excess fluid was removed, and the grids were negatively stained with 2% uranyl acetate in water for another two minutes. Microstructural features of the samples were viewed using a JEOL 1200EX electron microscope operating at 80 kV.
# In order to obtain insight into the mechanism of inhibiting formation of β-amyloidpolypeptide type of amyloid fibrils, representative samples taken from the ThT fluorescence assay measurements described above after attainment of the plateau (at about 192 hours, FIG. 2), in the absence or presence of indole-3-carbinol, were viewed using electron microscopy.
# [8] = 50 μM compound, 5 μM Aβ1-40, endpoint of experiment, read-out: inhibition level at final equilibrium phase
# [9] = 50 μM compound, 14 days incubation
# T3 sequence (P05067 672-711 limits assumed): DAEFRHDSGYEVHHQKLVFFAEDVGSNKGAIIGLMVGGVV
# T2 sequence (P05067 672-711 limits assumed): as above
# T1 sequence (P05067 672-713 limits assumed): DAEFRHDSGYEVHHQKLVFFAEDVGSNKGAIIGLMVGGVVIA
inhibition of β-amyloid polypeptide fibril formation [1],concentration dependence of inhibition of fibril formation [1],IC50 [1],SMILES,effect on nucleation phase (lag phase) compared with control ([2]; 5 μM Aβ1-40),effect on slope of growth curve (polymerization phase) ([2]; 5 μM Aβ1-40),"inhibition at 50 µM [2, 8]","fibril ultrastructure by TEM [3, 9]",amyloid fibril formation by AFM [4],inhibitory effect on Aβ1-40 cytotoxicity [5],other results
significantly reduced inhibition,,,Oc1cc2ccccc2[nH]1 [2-hydroxyindole],,,,,,,
significantly inhibited,dose-dependent inhibition pattern,~100 µM,Oc1c[nH]c2ccccc12 [3-hydroxyindole],no effect on the nucleation phase,dose-dependent effect,~60%,significant number of amorphous aggregates showing a congested form,small aggregates that interacted with the amyloid fibrils,no anti-cyclotoxic effect,"inhibition at 25 µM ([2]; 25 μM compound, 5 μM Aβ1-40, endpoint of experiment, read-out: inhibition level at final equilibrium phase): ~40%; improvement of PC12 survival rate compared with control ([5]; only at T=0 (solution added immediately), 5 μM Aβ1-40): about 25%"
significantly inhibited,dose-dependent inhibition pattern,~85 µM,Oc1cccc2[nH]ccc12 [4-hydroxyindole],,,,,no fibrils,most significant inhibitory effect,"effect on nucleation phase (lag phase) ([2]; 5 μM compound, 5 μM Aβ1-40): less significant; slope of growth curve (polymerization phase) ([2]; 5 μM compound, 5 μM Aβ1-40): the most sharp; inhibition at 5 µM ([2]; 5 μM compound, 5 μM Aβ1-40, endpoint of experiment, read-out: inhibition level at final equilibrium phase): ~60%; effect on nucleation phase (lag phase) ([2]; 25 μM compound, 5 μM Aβ1-40): significantly longer nucleation phase; inhibition level at final equilibrium phase ([2]; 25 μM compound, 5 μM Aβ1-40, endpoint of experiment): almost complete; effect on nucleation phase (lag phase) ([2]; 50 μM compound, 5 μM Aβ1-40): significantly longer nucleation phase; inhibition level at final equilibrium phase ([2]; 50 μM compound, 5 μM Aβ1-40, endpoint of experiment): almost complete; inhibition level at final equilibrium phase, comparison among compounds ([2]; all the tested concentrations): highest inhibition level; fibril ultrastructure by TEM ([3]; 5 μM or more of compound): no amyloid fibrils; fibril ultrastructure by TEM ([3]; 25 μM compound, 14 days incubation): devoid of fibrils and contained only a minor amount of small fibrils; protective effect, concentration dependence ([5]; 0.5 μM to 50 μM, 5 μM Aβ1-40, solution incubated 7 days): dose-dependent; minimum concentration required for significant inhibition ([5]; 5 μM Aβ1-40, solution incubated 7 days): 2.5 µM; elevation of viability rate of PC12 cells compared with control ([5]; 25 μM compound): about 25%; elevation of viability rate of PC12 cells compared with control ([5]; 50 μM compound): about 25%; toxic effect of Aβ1-40 ([5]; 50 μM compound, 5 μM Aβ1-40, solution incubated 7 days): completely blocked"
significantly reduced inhibition,,,Oc1ccc2[nH]ccc2c1 [5-hydroxyindole],,,,,,,

SMILES,inhibition of β-amyloid polypeptide fibril formation [1],concentration dependence of inhibition of fibril formation [1],IC50 [1],effect on nucleation phase (lag phase) compared with control ([2]; 5 μM Aβ1-40),effect on slope of growth curve (polymerization phase) ([2]; 5 μM Aβ1-40),"inhibition at 50 µM [2, 8]","fibril ultrastructure by TEM [3, 9]",amyloid fibril formation by AFM [4],inhibitory effect on Aβ1-40 cytotoxicity [5],other results
OCc1c[nH]c2ccccc12 [indole-3-carbinol],significantly inhibited,only at high concentrations and showed no dose-dependency,~200 µM,no effect on the nucleation phase,effect on the slope of the growth curve only at 50 μM,~50%,smaller amounts of amyloid fibril aggregates,small amounts of amyloid fibrils in the form of long wires,No significant inhibition of cytotoxicity,"level of fluorescence at the plateau compared to non-inhibited Aβ 1-40 ([6]; 5 μM Aβ 1-40): about a third; time to attainment of fluorescence plateau ([6]; 5 μM Aβ 1-40, 37° C., without compound about 200 hours): about 300 hours; levels of ThT fluorescence following about 100 hours ([6]; 5 μM Aβ 1-40, remaining duration of assay): significantly lower levels of fluorescence; lag-time of fibrillization ([6]; 5 μM Aβ 1-40, control lag-phase about 100 hours): significantly extended; fibril morphology by electron microscopy [7]: significantly shorter and less dense fiber type material"
